Data taken from US20210221848A1, “POLYMYXIN DERIVATIVES AND THEIR USE IN COMBINATION THERAPY TOGETHER WITH DIFFERENT ANTIBIOTICS” (priority 2014, published 2021).

Key:
HK-2 cell line = assay: In vitro renal cell toxicity assay (resazurin reduction)
Experimental: MICs were determined as described herein. HK-2 cell IC50 values were determined as described herein. Values are reported relative to Polymyxin B.

E. coli [1] = conditions: absence of a second agent, Table 6B
A. baumannii [2] = conditions: absence of a second agent, Table 6B
E. coli [3] = assay: MIC in the presence of a fixed concentration (2 μg/mL) of Rifampicin; type: cell-based, Escherichia coli; conditions: Rifampicin 2 μg/mL, Table 5D
[4] = tested on: A. baumanii strains with elevated MICs to Polymyxin B; assay: MIC against strains with elevated MICs to Polymyxin B; type: cell-based, Acinetobacter baumannii; conditions: Table 6D; for MIC A. baumannii 053: strain 053, elevated MIC to Polymyxin B; for MIC A. baumannii 056: strain 056, elevated MIC to Polymyxin B; for MIC A. baumannii 068: strain 068, elevated MIC to Polymyxin B; for MIC A. baumannii 070: strain 070, elevated MIC to Polymyxin B
How it was run: (§1)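 Inoculum was a direct suspension of colonies from an 18-24 hour Mueller-Hinton agar plate, adjusted to the 0.5 McFarland standard. Duplicate assays; the lower value was reported when duplicates differed by less than 2-fold, otherwise the run was invalid. Repeat-tested compounds give the modal MIC.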

K. pneumoniae [5] = assay: MIC in the presence of a fixed concentration (2 μg/mL) of Rifampicin; type: cell-based, Klebsiella pneumoniae; conditions: Rifampicin 2 μg/mL, Table 5D
Experimental: (§2) The inoculum was prepared by making a direct suspension of isolated colonies (selected from an 18-24 hour Mueller-Hinton agar plate) adjusted to the 0.5 McFarland standard. […] The assays were performed in duplicate. […] In cases where the duplicate values varied by less than 2-fold, the lower of the two values is reported. If a variation of greater than 2-fold was observed, the assay was considered non-valid. Several of the compounds were subjected to multiple tests, and where this is the case, the MIC reflects the modal value obtained.

P. aeruginosa = conditions: absence of a second agent, Table 6B
[6] = tested on: E. coli strains with elevated MICs to Polymyxin B; assay: MIC against strains with elevated MICs to Polymyxin B; type: cell-based, Escherichia coli; conditions: Table 6D; for MIC E. coli 059: strain 059, elevated MIC to Polymyxin B; for MIC E. coli 060: strain 060, elevated MIC to Polymyxin B; for MIC E. coli 061: strain 061, elevated MIC to Polymyxin B; for MIC E. coli 058: strain 058, elevated MIC to Polymyxin B
How it was run: as §1

[7] = tested on: K. pneumoniae strains with elevated MICs to Polymyxin B; assay: as above; type: cell-based, Klebsiella pneumoniae; conditions: Table 6D; for MIC K. pneumoniae 062: strain 062, elevated MIC to Polymyxin B; for MIC K. pneumoniae 063: strain 063, elevated MIC to Polymyxin B; for MIC K. pneumoniae 064: strain 064, elevated MIC to Polymyxin B; for MIC K. pneumoniae 655: strain 655, elevated MIC to Polymyxin B
How it was run: as §1

K. pneumoniae [8] = conditions: absence of a second agent, Table 6B
A. baumannii [9] = assay: MIC in the presence of […] of rifampicin; type: cell-based, Acinetobacter baumannii; conditions: for MIC in combination with Rifampicin, A. baumannii ATCC BAA-747: A. baumannii ATCC BAA-747, Table 5D; for MIC in combination with Rifampicin, A. baumannii NCTC 13424: A. baumannii NCTC 13424, Table 5D
Experimental: as §2

[10] = tested on: P. aeruginosa strains with elevated MICs to Polymyxin B; assay: MIC against strains with elevated MICs to Polymyxin B; type: cell-based, Pseudomonas aeruginosa; conditions: Table 6D; for MIC P. aeruginosa 066: strain 066, elevated MIC to Polymyxin B; for MIC P. aeruginosa 067: strain 067, elevated MIC to Polymyxin B
How it was run: as §1

Compound	MIC, E. coli ATCC 25922 (E. coli [1]) [micrograms/mL]	MIC, E. coli NCTC 13441 (E. coli [1]) [micrograms/mL]	MIC, A. baumannii ATCC BAA-747 (A. baumannii [2]) [micrograms/mL]	MIC, A. baumannii NCTC 13424 (A. baumannii [2]) [micrograms/mL]	MIC in combination with Rifampicin, E. coli ATCC 25922 (E. coli [3]) [micrograms/mL]	MIC in combination with Rifampicin, E. coli NCTC 13441 (E. coli [3]) [micrograms/mL]	MIC A. baumannii 053 [4] [micrograms/mL]	MIC A. baumannii 056 [4] [micrograms/mL]	MIC A. baumannii 068 [4] [micrograms/mL]	MIC A. baumannii 070 [4] [micrograms/mL]	MIC in combination with Rifampicin, K. pneumoniae ATCC 4352 (K. pneumoniae [5]) [micrograms/mL]	MIC in combination with Rifampicin, K. pneumoniae ATCC BAA-2146 (K. pneumoniae [5]) [micrograms/mL]	MIC, P. aeruginosa ATCC 27853 (P. aeruginosa) [micrograms/mL]	MIC, P. aeruginosa CCUG 59347 (P. aeruginosa) [micrograms/mL]	MIC E. coli 059 [6] [micrograms/mL]	MIC E. coli 060 [6] [micrograms/mL]	MIC, K. pneumoniae ATCC 4352 (K. pneumoniae [8]) [micrograms/mL]	MIC, K. pneumoniae ATCC BAA-2146 (K. pneumoniae [8]) [micrograms/mL]	MIC in combination with Rifampicin, A. baumannii ATCC BAA-747 (A. baumannii [9]) [micrograms/mL]	MIC in combination with Rifampicin, A. baumannii NCTC 13424 (A. baumannii [9]) [micrograms/mL]	also measured
CC(C)CC1CNCC1C(=O)N[C@H](C(=O)N[C@@H](CCN)C(=O)N[C@H]1CCNC(=O)[C@H]([C@@H](C)O)NC(=O)[C@H](CCN)NC(=O)[C@H](CCN)NC(=O)[C@H](CC(C)C)NC(=O)[C@@H](Cc2ccccc2)NC(=O)[C@H](CCN)NC1=O)[C@H](C)O (single isomer, unassigned) [Example D39, trans-4-(2-methylpropyl) pyrrolidine-3-carbonyl polymyxin B nonapeptide]	–	–	–	–	–	–	–	–	–	–	–	–	–	–	–	–	–	–	–	–	HK-2 IC50 rel to PMB (HK-2 cell line): 5.4
2-(2-aminoethyl)- undecanoyl polymyxin B nonapeptide [Example D26]	0.5	2	0.5	2	0.25	1	8	4	2	2	0.5	4	0.5	0.5	0.5	2	1	2	2	1	MIC E. coli 061 [6]: 4 micrograms/mL; MIC K. pneumoniae 062 [7]: 2 micrograms/mL; MIC K. pneumoniae 063 [7]: 4 micrograms/mL; MIC K. pneumoniae 064 [7]: 0.5 micrograms/mL; MIC K. pneumoniae 655 [7]: 4 micrograms/mL; MIC P. aeruginosa 066 [10]: 1 micrograms/mL; MIC P. aeruginosa 067 [10]: 8 micrograms/mL
(trans-5-cyclohexyl- piperidine)-3-carbonyl polymyxin B nonapeptide [Example D12]	>8	>8	>8	>8	0.06	0.25	–	–	–	–	0.125	0.25	1	4	–	–	>8	>8	0.5	0.03	–
(trans-5-cyclohexyl- piperidine)-3-carbonyl polymyxin B nonapeptide [Example D13]	–	0.125	0.5	0.125	0.06	0.125	–	–	–	–	0.125	0.125	0.5	0.5	–	–	0.125	0.25	0.125	0.06	–
2-(2-aminoethyl)- undecanoyl polymyxin B nonapeptide [Example D27]	0.125	0.06	0.25	1	0.125	–	64	32	2	4	0.5	4	0.5	0.5	2	4	0.25	0.5	1	1	MIC E. coli 058 [6]: 2 micrograms/mL; MIC E. coli 061 [6]: 16 micrograms/mL; MIC K. pneumoniae 062 [7]: 16 micrograms/mL; MIC K. pneumoniae 063 [7]: 64 micrograms/mL; MIC K. pneumoniae 064 [7]: 16 micrograms/mL; MIC K. pneumoniae 655 [7]: 64 micrograms/mL; MIC P. aeruginosa 066 [10]: 16 micrograms/mL; MIC P. aeruginosa 067 [10]: >64 micrograms/mL
(5-Phenyl-piperidine)- 3-carbonyl polymyxin B nonapeptide [Example D7]	>8	>8	>8	>8	0.06	0.5	–	–	–	–	0.125	0.5	2	>8	–	–	8	>8	1	0.03	–
(S)-1-octyl-piperazine- 2-carbonyl polymyxin B nonapeptide [Example D28]	0.125	0.125	0.25	1	1	0.5	32	16	4	4	0.5	2	0.5	1	0.5	2	0.25	0.5	1	1	MIC E. coli 058 [6]: 0.5 micrograms/mL; MIC E. coli 061 [6]: 4 micrograms/mL; MIC K. pneumoniae 062 [7]: 8 micrograms/mL; MIC K. pneumoniae 063 [7]: 16 micrograms/mL; MIC K. pneumoniae 064 [7]: 2 micrograms/mL; MIC K. pneumoniae 655 [7]: 16 micrograms/mL; MIC P. aeruginosa 065 ([10]; strain 065, elevated MIC to Polymyxin B): 0.5 micrograms/mL; MIC P. aeruginosa 066 [10]: 4 micrograms/mL; MIC P. aeruginosa 067 [10]: 32 micrograms/mL
